Measurements reported in patent US11919873B1, “1,3-benzothiazol-2-yl-N′-(benzoyloxy)ethanimidamide as an antitumor and antimicrobial compound” (priority 2023, dated 2024).

Experiments:
[1] = system: human prostate cancer cells (PC3); assay: Assessment of cytotoxicity by SRB assay, PC3; type: cell-based; details: 72 h, 0.01 μM to 100 μM, result in words only
Protocol: (§1) The human prostate cancer cells (PC3) and human osteosarcoma cells (MG-63) were obtained from Nawah Scientific Inc. (Mokatam, Cairo, Egypt) and cultured in DMEM (Dulbecco's modified eagle's medium), Gibco, USA, supplemented with fetal bovine serum (FBS) at a concentration of 10% and 100 U/mL of penicillin and streptomycin (PS). The cells were incubated at 37° C. in a humidified environment that contained 5% CO2. Cells were seeded in 96-well plates as aliquots of 100 μL cell suspension and incubated in a complete media for 24 h. Afterward, cells were treated with 3-(4-chlorophenyl)-5-{[5-methyl-2-(propan-2-yl)phenoxy]methyl}-1,2,4-oxadiazole at diverse concentrations ranging from 0.01 μM to 100 μM for 72 h. Then, cells were fixed at 4° C. for one hour with 150 μL of 10% trichloroacetic acid (TCA). […] Then, 150 μL of Tris pH 10.5 (10 mM) was added, and the absorbance was measured at 540 nm using a BMG LABTECH®—FLUOstar Omega microplate reader (Ortenberg, Germany). Half maximal inhibitory concentrations (IC50) values were calculated for each experiment using GraphPad Prism 6 software. […] The inhibition was calculated using the following equation: Inhibition %=100−Average Viability The anticancer activity of 1,3-benzothiazol-2-yl-N′-(benzoyloxy)ethanimidamide was assessed against highly aggressive androgen-independent metastatic human prostate cancer cells (PC3) and osteosarcoma (MG-63) cells.

[2] = system: human osteosarcoma cells (MG-63); assay: Assessment of cytotoxicity by SRB assay, MG-63; type: cell-based; details: 72 h, 0.01 μM to 100 μM, result in words only
Protocol: as §1

[3] = system: Bacillus cereus, Staphylococcus aureus, Pseudomonas aeruginosa, Escherichia coli, Aspergillus flavus, Chrysosporium keratinophilum; assay: Agar plate disc-diffusion antimicrobial test; type: cell-based; details: 10 μL of 10 mg/mL in DMSO per disc, bacteria and fungi, result in words only
Protocol: The agar plate disc-diffusion method was applied. Sterilized filter papers (6 mm in diameter) were wetted with 10 μL of a solution of each compound to be tested, containing 10 mg/mL in DMSO, and the discs were allowed to air dry. The discs were then placed onto the surface of agar plates (nutrient agar for bacteria and Sabouraud's dextrose agar for fungi) and seeded with the test organism. Each plate contained 15 mL of the agar medium, previously seeded with 0.2 mL of the broth culture of each organism pre-grown for 18 hours. The plates were incubated at 37° C. for 48 hours, and 72 hours for fungi. The inhibition zones were measured in mm. Discs impregnated with DMSO were used as a control, and its inhibition zone was subtracted from the tested compound actual inhibition zone. In particular, the present 1,3-benzothiazol-2-yl-N′-(benzoyloxy)ethanimidamide was screened against gram positive bacteria, namely Bacillus cereus and Staphylococcus aureus, and gram-negative bacterial strains, namely Pseudomonas aeruginosa and Escherichia coli, while the antifungal activity was screened against Aspergillus flavus and Chrysosporium keratinophilum.

**Q.** Which melting point does the source give for N/C(Cc1nc2ccccc2s1)=N\OC(=O)c1ccccc1 [1,3-benzothiazol-2-yl-N′-(benzoyloxy)ethanimidamide] here?
**A.** 153 to 155 °C

**Q.** What about the “antiproliferative activity against PC3 cells” value [1] of the same compound?
**A.** excellent antiproliferative activities

**Q.** And the “antiproliferative activity against MG-63 cells” value [2]?
**A.** excellent antiproliferative activities

**Q.** And the “antimicrobial activity against different microbes” value [3]?
**A.** excellent antimicrobial activities
